The target in data set [1] is BACE (Homo sapiens (Human), UniProt P56817). Kind of data set: In vitro BACE cell-based assay (Aβ40 in conditioned medium, sandwich ELISA). In general terms: ELISA stands for enzyme-linked immunosorbent assay.
For data set [2], the target named is Cathepsin D (Cat D) (Homo sapiens (Human), UniProt P07339). The data set is described as follows: In vitro enzymatic Cathepsin D (Cat D) FRET assay. The format is biochemical. The note with it: read-out: CatD IC50.
Data set [3] has as its system Abeta 40. Kind of data set: In vivo inhibition of beta-secretase: Abeta 40 reduction in CSF and brain of the rat. The note with it: after 4 hrs; for % reduction of rat CSF levels (3 mpk) / % reduction of rat CSF levels at 10 pmk: Abeta 40 in rat CSF; for % reduction of rat CSF levels at 10 pmk / % reduction of rat brain levels at 10 mpk: 10 mpk; for % reduction of rat brain levels (3 mpk) / % reduction of rat brain levels at 10 mpk: Abeta 40 in rat brain.
Excerpt: In Vivo Inhibition of Beta-Secretase
Several animal models, including mouse, rat, dog, and monkey, may be used to screen for inhibition of beta-secretase activity in vivo following administration of a test compound sample. […] A separate group of animals receive 2% hydroxypropyl methylcellulose, 1% Tween80 alone, containing no test compound, and serve as a vehicle-control group. At the end of the test period, animals are sacrificed and brain tissues, plasma or cerebrospinal fluid are collected. […] Homogenates are centrifuged at 355,000 g, 4° C. for 30 minutes. CSF or brain supernatants are then analyzed for the presence of A-beta peptide by specific sandwich ELISA assays based on ECL (Electrochemiluminescence) technology. For example, rat Abeta40 is measured using biotinylated-4G8 (Signet) as a capture antibody and Fab40 (an in-house antibody specific to the C-terminal of Abeta40) as a detection antibody.
Actual vehicles used: Oral: 2% HPMC, 1% Tween80, pH 2.2

For data set [4], the target named is Beta Secretase enzyme (BACE) (Homo sapiens (Human), UniProt P56817). Kind of data set: In vitro enzymatic BACE FRET assay. The class given is biochemical. The following applies: read-out: BACE1 Enzyme assay IC50.
Data set [5] relates to BACE1. The following applies: animals, orally available; cited from earlier work.
Data set [6] deals with BACE1 (Homo sapiens (Human), UniProt P56817). The note with it: cited from earlier work.
The subject of data set [7] is pigment epithelium of the rat's eye. The following applies: higher compound dose given for three months; cited from earlier work.

Sequence of Cathepsin D (Cat D) (P07339 65-412, species assumed): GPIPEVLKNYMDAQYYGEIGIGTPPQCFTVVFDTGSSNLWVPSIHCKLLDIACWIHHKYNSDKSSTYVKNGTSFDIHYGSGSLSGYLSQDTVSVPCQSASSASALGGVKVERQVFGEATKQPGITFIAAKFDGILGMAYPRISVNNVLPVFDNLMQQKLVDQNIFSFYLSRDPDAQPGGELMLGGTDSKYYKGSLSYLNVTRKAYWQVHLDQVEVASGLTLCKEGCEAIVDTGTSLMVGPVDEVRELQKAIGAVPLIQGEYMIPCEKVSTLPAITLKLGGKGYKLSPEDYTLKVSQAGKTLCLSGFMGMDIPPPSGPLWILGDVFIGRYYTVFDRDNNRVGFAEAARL
Sequence of Beta Secretase enzyme (BACE) (P56817 46-501): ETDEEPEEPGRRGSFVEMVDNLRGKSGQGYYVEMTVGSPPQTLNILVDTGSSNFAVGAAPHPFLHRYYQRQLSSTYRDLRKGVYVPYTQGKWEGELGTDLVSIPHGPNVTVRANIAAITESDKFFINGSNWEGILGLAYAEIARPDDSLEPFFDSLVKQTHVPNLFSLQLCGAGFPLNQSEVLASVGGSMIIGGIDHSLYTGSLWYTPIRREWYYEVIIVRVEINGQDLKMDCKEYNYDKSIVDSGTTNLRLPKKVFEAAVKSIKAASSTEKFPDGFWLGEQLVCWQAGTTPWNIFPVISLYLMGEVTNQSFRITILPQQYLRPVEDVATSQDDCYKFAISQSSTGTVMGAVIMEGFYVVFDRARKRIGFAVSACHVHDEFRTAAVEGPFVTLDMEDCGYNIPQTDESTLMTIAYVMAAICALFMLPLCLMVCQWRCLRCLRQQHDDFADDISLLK
Sequence of BACE (P56817 46-501, species assumed): as the sequence (P56817 46-501) above
Sequence of BACE1 (Homo sapiens (Human), UniProt P56817) (P56817 46-501): as above

As to `NC1=N[C@](CF)(c2cc(NC(=O)c3ncc(Cl)cc3Cl)ccc2Cl)[C@H]2C[C@H]2O1` [Example 281, N-(3-((1R,5S,6R)-3-amino-5-(fluoromethyl)-2-oxa-4-azabicyclo[4.1.0]hept-3-en-5-yl)-4-chlorophenyl)-3,5-dichloropicolinamide], the IC50 in data set [1] was 0.006 µM. Moreover, the IC50 in data set [2] is 2870 µM. In addition, in data set [3], the “% reduction of rat CSF levels (3 mpk)” value is reported as 55 (3 mpk) %, the “% reduction of rat CSF levels at 10 pmk” value is listed as 70%, the “% reduction of rat brain levels (3 mpk)” value was 34 (3 mpk) % and the “% reduction of rat brain levels at 10 mpk” value (“% reduction … at 10 mpk” for short) amounted to 72%. Besides, in data set [4], the IC50 was determined as 0.0441 µM.

`Cc1cc(C#N)cnc1C(=O)Nc1ccc(Cl)c([C@@]2(CF)N=C(N)O[C@@H]3C[C@@H]32)c1` [Example 283, N-(3-((1R,5S,6R)-3-amino-5-(fluoromethyl)-2-oxa-4-azabicyclo[4.1.0]hept-3-en-5-yl)-4-chlorophenyl)-5-cyano-3-methylpicolinamide] displayed a 50% inhibitory concentration (IC50) in data set [1] of 0.0075 µM. In addition, the IC50 in data set [2] worked out at 1580 µM. In data set [3], the “% reduction of rat CSF levels (3 mpk)” value is 61 (3 mpk) %, the “% reduction of rat CSF levels at 10 pmk” value was determined as 75%, the “% reduction of rat brain levels (3 mpk)” value is on record as 44 (3 mpk) % and the “% reduction … at 10 mpk” value worked out at 69%. In addition, the IC50 in data set [4] amounted to 0.031 µM.

In the case of `COc1cnc(C(=O)Nc2cc(C)c(F)c([C@@]3(C(F)F)N=C(N)O[C@@H]4C[C@@H]43)c2)cn1` [Example 299, N-(3-((1R,5S,6R)-3-amino-5-(difluoromethyl)-2-oxa-4-azabicyclo[4.1.0]hept-3-en-5-yl)-4-fluoro-5-methylphenyl)-5-methoxypyrazine-2-carboxamide], the IC50 was 0.014 µM in data set [1], 465 µM in data set [2] and 0.0305 µM in data set [4]. Moreover, the “% reduction of rat CSF levels at 10 pmk” value in data set [3] is 74%. In addition, in data set [3], the “% reduction … at 10 mpk” value was found to be 62%.

In the case of `Cc1cc(NC(=O)c2ncc(Cl)cc2F)cc([C@@]2(C(F)F)N=C(N)O[C@@H]3C[C@@H]32)c1F` [Example 302, N-(3-((1R,5S,6R)-3-amino-5-(difluoromethyl)-2-oxa-4-azabicyclo[4.1.0]hept-3-en-5-yl)-4-fluoro-5-methylphenyl)-5-chloro-3-fluoropicolinamide], the IC50 in data set [1] came to 0.0141 µM; in data set [2], 811 µM; in data set [4], 0.0315 µM. For the same compound, in data set [3], the “% reduction of rat CSF levels at 10 pmk” value is listed as 37%. For the same compound, in data set [3], the “% reduction … at 10 mpk” value was found to be 9%.

On to `COc1ccc(C(=O)Nc2cc(C)c(F)c([C@@]3(C(F)F)N=C(N)O[C@@H]4C[C@@H]43)c2)nc1` [Example 304, N-(3-((1R,5S,6R)-3-amino-5-(difluoromethyl)-2-oxa-4-azabicyclo[4.1.0]hept-3-en-5-yl)-4-fluoro-5-methylphenyl)-5-methoxypicolinamide], for which the values for the IC50 in data set [1], in data set [2] and in data set [4] were 0.0359 µM, 355 µM and 0.0522 µM, respectively. Further, in data set [3], the “% reduction of rat CSF levels at 10 pmk” value is reported as 41%. Moreover, the “% reduction … at 10 mpk” value in data set [3] amounted to 20%.

As for `COc1cnc(C(=O)Nc2ccc(F)c([C@@]3(C(F)F)N=C(N)O[C@@H]4C[C@@H]43)c2)c(F)c1` [Example 306, N-(3-((1R,5S,6R)-3-amino-5-(difluoromethyl)-2-oxa-4-azabicyclo[4.1.0]hept-3-en-5-yl)-4-fluorophenyl)-3-fluoro-5-methoxypicolinamide], the IC50 came out at 0.0256 µM in data set [1], 1040 µM in data set [2] and 0.0419 µM in data set [4]. In addition, the “% reduction of rat CSF levels at 10 pmk” value in data set [3] is 13%. The “% reduction … at 10 mpk” value in data set [3] is −1%.

As for `NC1=N[C@@](c2cc(NC(=O)c3ccc(OC(F)F)cn3)ccc2F)(C(F)F)[C@H]2C[C@H]2O1` [Example 312, N-(3-((1R,5S,6R)-3-amino-5-(difluoromethyl)-2-oxa-4-azabicyclo[4.1.0]hept-3-en-5-yl)-4-fluorophenyl)-5-(difluoromethoxy) picolinamide], the results for the IC50 in data set [1], in data set [2] and in data set [4] were 0.0179 µM, 442 µM and 0.0377 µM, respectively. The “% reduction of rat CSF levels at 10 pmk” value in data set [3] worked out at 30%. Further, the “% reduction … at 10 mpk” value in data set [3] is on record as −1%.

As for `N#Cc1cnc(C(=O)Nc2ccc(F)c([C@@]3(C(F)F)N=C(N)O[C@@H]4C[C@@H]43)c2)c(F)c1` [Example 388, N-(3-((1R,5S,6R)-3-amino-5-(difluoromethyl)-2-oxa-4-azabicyclo[4.1.0]hept-3-en-5-yl)-4-fluorophenyl)-5-cyano-3-fluoropicolinamide], the IC50 in data set [1] came out at 0.0069 µM; in data set [2] it was 1270 µM; in data set [4] it was 0.0352 µM. In data set [3], the “% reduction of rat CSF levels at 10 pmk” value is listed as 21%. In addition, the “% reduction … at 10 mpk” value in data set [3] is listed as 4%.

As to `COCc1cc(C#N)cnc1C(=O)Nc1ccc(F)c([C@@]2(C(F)F)N=C(N)O[C@@H]3C[C@@H]32)c1` [Example 391, N-(3-((1R,5S,6R)-3-amino-5-(difluoromethyl)-2-oxa-4-azabicyclo[4.1.0]hept-3-en-5-yl)-4-fluorophenyl)-5-cyano-3-(methoxymethyl)picolinamide], the IC50 in data set [1] came to 0.0175 µM; in data set [2], 1350 µM; in data set [4], 0.0116 µM. The “% reduction of rat CSF levels at 10 pmk” value in data set [3] is given as 54%. In addition, the “% reduction … at 10 mpk” value in data set [3] is reported as 24%.

Regarding `NC1=N[C@@](c2cc(NC(=O)c3cnc(OCC4CC4)cn3)ccc2F)(C(F)F)[C@H]2C[C@H]2O1` [Example 415, N-(3-((1R,5S,6R)-3-amino-5-(difluoromethyl)-2-oxa-4-azabicyclo[4.1.0]hept-3-en-5-yl)-4-fluorophenyl)-5-(cyclopropylmethoxy)pyrazine-2-carboxamide], the IC50 stood at 0.0551 µM in data set [1], 747 µM in data set [2] and 0.043 µM in data set [4]. In addition, the “% reduction of rat CSF levels at 10 pmk” value in data set [3] is recorded as 27%. Moreover, in data set [3], the “% reduction … at 10 mpk” value was determined as 14%.

For the compound `NC1=N[C@@](c2cc(NC(=O)c3ncc(Cl)cc3CO)ccc2F)(C(F)F)[C@H]2C[C@H]2O1` [Example 419, N-(3-((1R,5S,6R)-3-amino-5-(difluoromethyl)-2-oxa-4-azabicyclo-[4.1.0]hept-3-en-5-yl)-4-fluorophenyl)-5-chloro-3-(hydroxymethyl)picolinamide], the 50% inhibitory concentration (IC50) is 0.0293 µM in data set [1], 276 µM in data set [2] and 0.0332 µM in data set [4]. In data set [3], the “% reduction of rat CSF levels at 10 pmk” value is given as 57%. In addition, in data set [3], the “% reduction … at 10 mpk” value was 42%.

For `C[C@@]1(c2cc(-c3cncnc3)c(F)cc2F)CCSC(N)=N1` [LY2811376, (S)-4-(2,4-difluoro-5-pyrimidin-5-yl-phenyl)-4-methyl-5,6-dihydro-4H-[1,3]thiazin-2-ylamine], the Aβ-lowering effects entry in data set [5] was “profound Aβ-lowering effects”. Besides, in data set [6] (healthy volunteers, oral dosing of 30 or 90 mg), the “Aβ reductions in lumbar CSF” value was “Prominent and long-lasting Aβ reductions”. Also, the safety and tolerability entry in data set [6] (healthy volunteers) is “safe and well tolerated”.

As for `C[C@@]1(c2cc(-c3cncnc3)c(F)cc2F)CCSC(N)=N1` [LY 2811376], the eye toxicity finding result in data set [7] is given as “damaged the pigment epithelium of the rat's eye”. In addition, the eye assessments result in data set [6] (people of the terminated Ph I dosing trial) is listed as “did not show any abnormalities”.

What is called IC50 is the concentration that inhibits the measured activity by half.
